Source: the supplement of paper PMC10307832

Tests used:
Test in all cases: relative viability (nuclei count vs DMSO), 5 days (fraction); higher = more cells survive
[1] = compound: C#Cc1cccc(Nc2ncnc3cc(OCCOC)c(OCCOC)cc23)c1 [Erlotinib] + C[C@]1(O)C[C@@H](c2nc(-c3ccc4ccc(-c5ccccc5)nc4c3)c3c(N)nccn32)C1 [Linsitinib] (partner 1 µM)
In short: (§1)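 Lung cancer cell lines in 1536-well plates were dosed by pin tool the day after seeding, either with one drug alone or with a fixed anchor-drug dose plus five library-drug doses (not always all listed) in √10 steps. After 5 days, cells were fixed and their nuclei stained in one step (final 0.05% Triton X-100, 1% formaldehyde, 1 ug/ml Hoechst), then counted on 4× images. Relative viability is the nuclei count in treated wells divided by that in vehicle wells. Values are medians of duplicate plates.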

[2] = compound: O=C(Nc1c[nH]nc1-c1nc2ccc(CN3CCOCC3)cc2[nH]1)NC1CC1 [AT9283] + CC(C)C[C@H](NC(=O)[C@H](Cc1ccccc1)NC(=O)c1cnccn1)B(O)O [Bortezomib] (partner 0.002 µM)
In short: as §1

[3] = compound: C#Cc1cccc(Nc2ncnc3cc(OCCOC)c(OCCOC)cc23)c1 [Erlotinib] + CS(=O)(=O)N1CCN(Cc2cc3nc(-c4cccc5[nH]ncc45)nc(N4CCOCC4)c3s2)CC1 [Pictilisib] (partner 1 µM)
In short: as §1

[4] = compound: C#Cc1cccc(Nc2ncnc3cc(OCCOC)c(OCCOC)cc23)c1 [Erlotinib] + CS(=O)(=O)CCNCc1ccc(-c2ccc3ncnc(Nc4ccc(OCc5cccc(F)c5)c(Cl)c4)c3c2)o1 [Lapatinib] (partner 2 µM)
In short: as §1

[5] = compound: O=C(Nc1c[nH]nc1-c1nc2ccc(CN3CCOCC3)cc2[nH]1)NC1CC1 [AT9283] + CCNC(=O)c1noc(-c2cc(C(C)C)c(O)cc2O)c1-c1ccc(CN2CCOCC2)cc1 [Luminespib] (partner 0.01 µM)
In short: as §1

Cell Line | relative viability ([1]; first compound 0.02 µM) | relative viability ([1]; first compound 0.2 µM) | relative viability ([1]; first compound 0.6325 µM) | relative viability ([1]; first compound 2 µM) | relative viability ([2]; first compound 0.003 µM) | relative viability ([2]; first compound 0.03 µM) | relative viability ([2]; first compound 0.09487 µM) | relative viability ([2]; first compound 0.3 µM) | relative viability ([3]; first compound 0.02 µM) | relative viability ([3]; first compound 0.2 µM) | relative viability ([3]; first compound 0.6325 µM) | relative viability ([3]; first compound 2 µM) | relative viability ([4]; first compound 0.02 µM) | relative viability ([4]; first compound 0.2 µM) | relative viability ([4]; first compound 0.6325 µM) | relative viability ([5]; first compound 0.003 µM) | relative viability ([5]; first compound 0.03 µM) | relative viability ([5]; first compound 0.09487 µM) | relative viability ([5]; first compound 0.3 µM) | relative viability ([4]; first compound 2 µM)
NCI-H2085 | 0.858 | 0.728 | 0.664 | 0.76 | 1.03 | 0.937 | 0.984 | 0.485 | 0.459 | 0.46 | 0.513 | 0.358 | 0.775 | 0.74 | 0.845 | 0.585 | 0.477 | 0.403 | 0.341 | 
NCI-H2087 | 1.03 | 1.14 | 1.06 | 0.828 | 0.753 | 0.626 | 0.447 | 0.23 | 0.842 | 0.844 | 0.932 |  | 0.996 | 1.15 | 1.16 | 0.163 | 0.17 | 0.15 | 0.139 | 0.921
NCI-H2126 |  | 0.597 | 0.548 | 0.419 | 1.11 | 1.09 | 1.1 | 0.528 | 0.505 | 0.396 | 0.4 | 0.379 | 0.771 | 0.763 | 0.788 | 0.949 | 0.954 | 0.826 | 0.422 | 0.727
NCI-H2228 | 0.515 | 0.75 | 0.557 | 0.514 | 1.04 | 0.529 | 0.118 | 0.176 | 0.385 | 0.405 | 0.351 | 0.348 | 0.946 | 1.31 | 1.31 | 0.152 | 0.123 | 0.162 | 0.11 | 0.891
NCI-H2347 | 1.03 | 1.04 |  | 0.834 | 0.933 | 1.01 | 1 | 0.539 | 0.699 | 0.545 | 0.827 | 0.655 | 1.04 | 1.08 | 0.806 | 0.364 | 0.543 | 0.43 | 0.231 | 0.882
NCI-H2405 | 1.01 |  | 0.994 | 0.768 | 0.875 | 0.967 | 0.721 | 0.33 | 0.36 | 0.452 | 0.589 | 0.469 | 1.1 | 1.11 | 1.14 | 0.662 | 0.625 | 0.352 | 0.331 | 0.976
NCI-H3122 | 1.04 | 1.06 | 1.02 | 0.961 | 1.04 | 1.02 | 0.548 | 0.37 | 0.576 | 0.614 |  | 0.598 | 1.08 | 1.03 | 0.982 | 0.122 | 0.0841 | 0.051 | 0.0606 | 1.01
